# Source: US20060235076A1, “Medicinal composition for treating infection with drug-resistant staphylococcus aureus” (priority 2003, published 2006)
# Where two headings read alike, the source gives them in different places.
# Key:
# [1] = system: MRSA COL and MRSA Strain No. 5; test: Potentiating effect of various gallates for antibacterial activity of oxacillin (MIC by broth microdilution method and FIC); format: cell-based, Staphylococcus aureus; details: for FIC value: combination with oxacillin
# Protocol: According to the broth microdilution method defined by Japan Society of Chemotherapy, MIC was determined. CAMHA was prepared by adding 50 mg/l of Ca-ion, 25 mg/l of Mg-ion, and 2% of NaCl to MHB (Mueller-Hinton Broth), and it was used as a medium for use in the measurement of sensitivity. In 96-well microplates 100 μl of the medium for use in the measurement of sensitivity containing drugs was dispensed. The bacterial liquid was incubated at 37° C. overnight, diluted with saline and added to the plate so that the final concentration of the bacteria was 5×10^5 CFU/well. […] FIC (fractional inhibitory concentration) was calculated from the result and the potency of the effect of the combination use was evaluated.
# MRSA and MSSA = test: Antibacterial activity of gallic acid, various gallates and multivalent phenol derivatives alone (agar plate dilution method, MIC); format: cell-based, Staphylococcus aureus; details: Staphylococcus aureus
# Protocol: According to the agar plate dilution method defined by Japan Society of Chemotherapy, MIC (Minimum inhibitory concentration) was determined. CAMHA was prepared by adding 50 mg/l of Ca-ion, 25 mg/l of Mg-ion, and 2% of NaCl to Mueller-Hinton II Agar (MHA), and it was used as a medium for use in the measurement of sensitivity. The bacterial liquid was incubated at 37° C. overnight and diluted to 10^6 CFU/ml with saline.
# MIC for gallic acid, various gallates and multivalent phenol derivatives alone with MRSA and MSSA were determined as described in experiment 2.
# [2] = ATCC 6538 / MRSA / MSSA, read-out: MIC alone
# [3] = MSSA #1003, read-out: MIC alone
# [4] = MSSA #1010, read-out: MIC alone
# [5] = MSSA #1020, read-out: MIC alone
# [6] = MSSA #1023, read-out: MIC alone
# [7] = MSSA #1029, read-out: MIC alone
# [8] = MSSA #1032, read-out: MIC alone
smiles,measurement,setting,value
"CCOC(=O)c1cc(O)c(O)c(O)c1 [Ethyl gallate, ethyl gallate]",FIC value,[1]; MRSA COL,0.125
same,FIC value,[1]; MRSA Strain No. 5,0.156
same,MIC50,MRSA and MSSA,125 µg/mL
same,MIC,MRSA and MSSA; [2],125 µg/mL
same,MIC,"MRSA and MSSA; COL, read-out: MIC alone",125 µg/mL
same,MIC,"MRSA and MSSA; MRSA #1, read-out: MIC alone",125 µg/mL
same,MIC,"MRSA and MSSA; MRSA #2, read-out: MIC alone",62.5 µg/mL
same,MIC,"MRSA and MSSA; MRSA #3, read-out: MIC alone",125 µg/mL
same,MIC,"MRSA and MSSA; MRSA #4, read-out: MIC alone",62.5 µg/mL
same,MIC,"MRSA and MSSA; MRSA #5, read-out: MIC alone",125 µg/mL
same,MIC,"MRSA and MSSA; MRSA #6, read-out: MIC alone",62.5 µg/mL
same,MIC,"MRSA and MSSA; MRSA #7, read-out: MIC alone",125 µg/mL
same,MIC,"MRSA and MSSA; MRSA #8, read-out: MIC alone",125 µg/mL
same,MIC,"MRSA and MSSA; MRSA #9, read-out: MIC alone",62.5 µg/mL
same,MIC,"MRSA and MSSA; MRSA #10, read-out: MIC alone",62.5 µg/mL
same,MIC,"MRSA and MSSA; MRSA #12, read-out: MIC alone",125 µg/mL
same,MIC,"MRSA and MSSA; MRSA #16, read-out: MIC alone",125 µg/mL
same,MIC,"MRSA and MSSA; MRSA #17, read-out: MIC alone",62.5 µg/mL
same,MIC,"MRSA and MSSA; MRSA #18, read-out: MIC alone",62.5 µg/mL
same,MIC,"MRSA and MSSA; MRSA #20, read-out: MIC alone",125 µg/mL
same,MIC,"MRSA and MSSA; MRSA #21, read-out: MIC alone",125 µg/mL
same,MIC,"MRSA and MSSA; MRSA #22, read-out: MIC alone",125 µg/mL
same,MIC,"MRSA and MSSA; MRSA #24, read-out: MIC alone",125 µg/mL
same,MIC,MRSA and MSSA; [3],125 µg/mL
same,MIC,MRSA and MSSA; [4],125 µg/mL
same,MIC,MRSA and MSSA; [5],125 µg/mL
same,MIC,MRSA and MSSA; [6],62.5 µg/mL
same,MIC,MRSA and MSSA; [7],62.5 µg/mL
same,MIC,MRSA and MSSA; [8],125 µg/mL
"CCCCCCCCCCCOC(=O)c1cc(O)c(O)c(O)c1 [Undecyl gallate, n-undecyl gallate]",antibacterial activity when used alone,[1]; COL Strain and Strain No. 5,most potent
same,FIC value,[1]; MRSA COL,0.313
same,FIC value,[1]; MRSA Strain No. 5,0.251
same,MIC50,MRSA and MSSA,31.3 µg/mL
same,MIC,MRSA and MSSA; ATCC 6538 / MRSA / MSSA,31.3 µg/mL
same,MIC,"MRSA and MSSA; COL, compound alone, read-out: MIC",31.3 µg/mL
same,MIC,"MRSA and MSSA; MRSA #1, compound alone, read-out: MIC",31.3 µg/mL
same,MIC,"MRSA and MSSA; MRSA #2, compound alone, read-out: MIC",31.3 µg/mL
same,MIC,"MRSA and MSSA; MRSA #3, compound alone, read-out: MIC",31.3 µg/mL
same,MIC,"MRSA and MSSA; MRSA #4, compound alone, read-out: MIC",31.3 µg/mL
same,MIC,"MRSA and MSSA; MRSA #5, compound alone, read-out: MIC",31.3 µg/mL
same,MIC,"MRSA and MSSA; MRSA #6, compound alone, read-out: MIC",31.3 µg/mL
same,MIC,"MRSA and MSSA; MRSA #7, compound alone, read-out: MIC",31.3 µg/mL
same,MIC,"MRSA and MSSA; MRSA #8, compound alone, read-out: MIC",31.3 µg/mL
same,MIC,"MRSA and MSSA; MRSA #9, compound alone, read-out: MIC",31.3 µg/mL
same,MIC,"MRSA and MSSA; MRSA #10, compound alone, read-out: MIC",31.3 µg/mL
same,MIC,"MRSA and MSSA; MRSA #12, compound alone, read-out: MIC",31.3 µg/mL
same,MIC,"MRSA and MSSA; MRSA #16, compound alone, read-out: MIC",31.3 µg/mL
same,MIC,"MRSA and MSSA; MRSA #17, compound alone, read-out: MIC",31.3 µg/mL
same,MIC,"MRSA and MSSA; MRSA #18, compound alone, read-out: MIC",31.3 µg/mL
same,MIC,"MRSA and MSSA; MRSA #20, compound alone, read-out: MIC",31.3 µg/mL
same,MIC,"MRSA and MSSA; MRSA #21, compound alone, read-out: MIC",31.3 µg/mL
same,MIC,"MRSA and MSSA; MRSA #22, compound alone, read-out: MIC",31.3 µg/mL
same,MIC,"MRSA and MSSA; MRSA #24, compound alone, read-out: MIC",31.3 µg/mL
same,MIC,"MRSA and MSSA; MSSA #1003, compound alone, read-out: MIC",31.3 µg/mL
same,MIC,"MRSA and MSSA; MSSA #1010, compound alone, read-out: MIC",31.3 µg/mL
same,MIC,"MRSA and MSSA; MSSA #1020, compound alone, read-out: MIC",31.3 µg/mL
same,MIC,"MRSA and MSSA; MSSA #1023, compound alone, read-out: MIC",31.3 µg/mL
same,MIC,"MRSA and MSSA; MSSA #1029, compound alone, read-out: MIC",31.3 µg/mL
same,MIC,"MRSA and MSSA; MSSA #1032, compound alone, read-out: MIC",31.3 µg/mL
"CCCCCCCOC(=O)c1cc(O)c(O)c(O)c1 [Heptyl gallate, n-heptyl gallate]",FIC value,[1]; MRSA COL,0.563
same,FIC value,[1]; MRSA Strain No. 5,0.75
same,MIC50,MRSA and MSSA,31.3 µg/mL
same,MIC,MRSA and MSSA; [2],31.3 µg/mL
same,MIC,"MRSA and MSSA; COL, read-out: MIC alone",31.3 µg/mL
same,MIC,"MRSA and MSSA; MRSA #1, read-out: MIC alone",31.3 µg/mL
same,MIC,"MRSA and MSSA; MRSA #2, read-out: MIC alone",31.3 µg/mL
same,MIC,"MRSA and MSSA; MRSA #3, read-out: MIC alone",31.3 µg/mL
same,MIC,"MRSA and MSSA; MRSA #4, read-out: MIC alone",31.3 µg/mL
same,MIC,"MRSA and MSSA; MRSA #5, read-out: MIC alone",31.3 µg/mL
same,MIC,"MRSA and MSSA; MRSA #6, read-out: MIC alone",31.3 µg/mL
same,MIC,"MRSA and MSSA; MRSA #7, read-out: MIC alone",31.3 µg/mL
same,MIC,"MRSA and MSSA; MRSA #8, read-out: MIC alone",31.3 µg/mL
same,MIC,"MRSA and MSSA; MRSA #9, read-out: MIC alone",31.3 µg/mL
same,MIC,"MRSA and MSSA; MRSA #10, read-out: MIC alone",31.3 µg/mL
same,MIC,"MRSA and MSSA; MRSA #12, read-out: MIC alone",31.3 µg/mL
same,MIC,"MRSA and MSSA; MRSA #16, read-out: MIC alone",31.3 µg/mL
same,MIC,"MRSA and MSSA; MRSA #17, read-out: MIC alone",31.3 µg/mL
same,MIC,"MRSA and MSSA; MRSA #18, read-out: MIC alone",31.3 µg/mL
same,MIC,"MRSA and MSSA; MRSA #20, read-out: MIC alone",31.3 µg/mL
same,MIC,"MRSA and MSSA; MRSA #21, read-out: MIC alone",31.3 µg/mL
same,MIC,"MRSA and MSSA; MRSA #22, read-out: MIC alone",31.3 µg/mL
same,MIC,"MRSA and MSSA; MRSA #24, read-out: MIC alone",31.3 µg/mL
same,MIC,MRSA and MSSA; [3],31.3 µg/mL
same,MIC,MRSA and MSSA; [4],31.3 µg/mL
same,MIC,MRSA and MSSA; [5],31.3 µg/mL
same,MIC,MRSA and MSSA; [6],31.3 µg/mL
same,MIC,MRSA and MSSA; [7],31.3 µg/mL
same,MIC,MRSA and MSSA; [8],31.3 µg/mL
"CCCCOC(=O)c1cc(O)c(O)c(O)c1 [Butyl gallate, n-butyl gallate]",effect of the combination use with oxacillin by FIC values,[1]; COL Strain and Strain No. 5,most potent effect of the combination use
same,FIC value,[1]; MRSA COL,0.129
same,FIC value,[1]; MRSA Strain No. 5,0.254
same,MIC,"MRSA and MSSA; ATCC 6538 / MRSA / MSSA, ATCC6538, read-out: MIC alone",125 µg/mL
same,MIC,"MRSA and MSSA; COL, read-out: MIC alone",125 µg/mL
same,MIC,"MRSA and MSSA; MRSA #1, read-out: MIC alone",125 µg/mL
same,MIC,"MRSA and MSSA; MRSA #2, read-out: MIC alone",125 µg/mL
same,MIC,"MRSA and MSSA; MRSA #3, read-out: MIC alone",125 µg/mL
same,MIC,"MRSA and MSSA; MRSA #4, read-out: MIC alone",125 µg/mL
same,MIC,"MRSA and MSSA; MRSA #5, read-out: MIC alone",125 µg/mL
same,MIC,"MRSA and MSSA; MRSA #6, read-out: MIC alone",62.5 µg/mL
same,MIC,"MRSA and MSSA; MRSA #7, read-out: MIC alone",125 µg/mL
same,MIC,"MRSA and MSSA; MRSA #8, read-out: MIC alone",125 µg/mL
same,MIC,"MRSA and MSSA; MRSA #9, read-out: MIC alone",62.5 µg/mL
same,MIC,"MRSA and MSSA; MRSA #10, read-out: MIC alone",62.5 µg/mL
same,MIC,"MRSA and MSSA; MRSA #12, read-out: MIC alone",125 µg/mL
same,MIC,"MRSA and MSSA; MRSA #16, read-out: MIC alone",125 µg/mL
same,MIC,"MRSA and MSSA; MRSA #17, read-out: MIC alone",125 µg/mL
same,MIC,"MRSA and MSSA; MRSA #18, read-out: MIC alone",125 µg/mL
same,MIC,"MRSA and MSSA; MRSA #20, read-out: MIC alone",125 µg/mL
same,MIC,"MRSA and MSSA; MRSA #21, read-out: MIC alone",125 µg/mL
same,MIC,"MRSA and MSSA; MRSA #22, read-out: MIC alone",125 µg/mL
same,MIC,"MRSA and MSSA; MRSA #24, read-out: MIC alone",125 µg/mL
same,MIC,MRSA and MSSA; [3],125 µg/mL
same,MIC,MRSA and MSSA; [4],125 µg/mL
same,MIC,MRSA and MSSA; [5],125 µg/mL
same,MIC,MRSA and MSSA; [6],125 µg/mL
same,MIC,MRSA and MSSA; [7],62.5 µg/mL
same,MIC,MRSA and MSSA; [8],125 µg/mL
same,MIC50,"MRSA and MSSA; compound alone, over all strains of Table 3-1, read-out: MIC50",125 µg/mL
